Test results from publication PMC7315563, “Bioactive fluorenes. Part III: 2,7-dichloro-9H-fluorene-based thiazolidinone and azetidinone analogues as anticancer and antimicrobial against multidrug resistant strains agents” (BMC Chemistry, 2020).
Values after ≈ are worked out from the molar mass of the structure shown. Values belong to the molecule of their own block, whether it stands above or below them.

Columns and labels:
Type in all cases: cell-based
[1] = tested on: Acinetobacter baumannii (A. baumannii), multidrug resistant clinical isolate; assay: agar well diffusion assay; conditions: 24 h, PC positive control Gentamicin 10 µg/mL
Summary of the method: (§1)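 Multidrug-resistant clinical isolates swabbed on Mueller–Hinton agar at about 1–5 × 10^5 CFU/mL; 0.5 cm wells received 50 μL compound at 500 μg/mL in 1% DMSO. Incubation 24 h, 37 °C for bacteria and C. albicans, 25 °C for Aspergillus; inhibition zone diameter measured in mm.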

[2] = tested on: Escherichia coli (E. coli), multidrug resistant clinical isolate; assay: agar well diffusion assay; conditions: 24 h, PC positive control Gentamicin 10 µg/mL
Summary of the method: as §1

[3] = tested on: Klebsiella pneumoniae (K. pneumoniae), multidrug resistant clinical isolate; assay: agar well diffusion assay; conditions: 24 h, PC positive control Gentamicin 10 µg/mL
Summary of the method: as §1

[4] = tested on: Pseudomonas aeruginosa (P. aeruginosa), multidrug resistant clinical isolate; assay: agar well diffusion assay; conditions: 24 h, PC positive control Gentamicin 10 µg/mL
Summary of the method: as §1

E. coli = assay: MIC by broth microdilution method (resazurin end point); conditions: Escherichia coli, 24 h at 37 °C
Procedure: (§2) Determination of Minimum inhibitory concentrations (MIC) of flourene derivatives was done using broth microdilution method. The procedure involved preparation of twofold dilutions of the fluorene derivatives ranging from (500–7.8 μg/mL) in sterile Mueller–Hinton broth inside the wells of 96-well microplate (Sarstedt, Germany). The inoculums of test strains prepared from fresh overnight cultures were adjusted to 0.5 McFarland standards, which equals to 1–2 × 10^8 CFU/mL for bacteria, the procedure was done according to CLSI 2012 [42]. […] For this assay the positive control agents were vancomycin (range: 0.7–50 μg/mL), gentamicin (range: 0.15–10 μg/mL) and the negative control was 1% DMSO.
(§3) For proper determination of the MIC end point resazurin dye has been used. A stock solution of resazurin sodium salt powder (Titan Biotech) was prepared at 0.02% (wt/vol) in distilled water, sterilized by filtration through a […] filter into a sterile light protected container then stored protected from light at 4 °C for up to 1 week, or at − […] for long term use, then 10–15% resazurin solution of the total volume in wells was added to each well and incubation for 1–4 h at 37 °C was done. A change in color from blue to pink indicates the growth of bacteria, and MIC was defined as the lowest concentration of the drug that prevented this change in color.

K. pneumoniae = assay: as above; conditions: Klebsiella pneumoniae, 24 h at 37 °C
Procedure: as §2, §3

P. aeruginosa = assay: as above; conditions: Pseudomonas aeruginosa, 24 h at 37 °C
Procedure: as §2, §3

[5] = tested on: Aspergillus flavus (A. flavus); assay: agar well diffusion assay; conditions: 24 h, PC positive control fluconazole 25 µg/mL
Summary of the method: as §1

[6] = tested on: Aspergillus niger (A. niger); assay: agar well diffusion assay; conditions: 24 h, PC positive control fluconazole 25 µg/mL
Summary of the method: as §1

[7] = tested on: Candida albicans (C. albicans); assay: agar well diffusion assay; conditions: 24 h, PC positive control fluconazole 25 µg/mL
Summary of the method: as §1

[8] = tested on: Staphylococcus aureus (S. aureus), multidrug resistant clinical isolate; assay: agar well diffusion assay; conditions: Staphylococcus aureus, 24 h, read-out: Mean zone of inhibition
Summary of the method: as §1

[9] = tested on: Streptococcus pneumoniae (S. pneumoniae), multidrug resistant clinical isolate; assay: agar well diffusion assay; conditions: Streptococcus pneumoniae, 24 h, read-out: Mean zone of inhibition
Summary of the method: as §1

[10] = tested on: methicillin-resistant Staphylococcus aureus (MRSA); assay: agar well diffusion assay; conditions: Staphylococcus aureus, 24 h, read-out: Mean zone of inhibition
Summary of the method: as §1

MRSA = assay: MIC by broth microdilution method (resazurin end point); conditions: Staphylococcus aureus, 24 h
Procedure: as §2, §3

S. aureus = assay: as above; conditions: Staphylococcus aureus, 24 h
Procedure: as §2, §3

MIC (E. coli): 0.3 µg/mL (≈ 0.628 µM) | MIC (K. pneumoniae): 0.3 µg/mL (≈ 0.628 µM) | MIC (P. aeruginosa): 0.3 µg/mL (≈ 0.628 µM)
SMILES: CNC(C)C1CCC(N)C(OC2C(N)CC(N)C(OC3OCC(C)(O)C(NC)C3O)C2O)O1 (stereo not drawn) [Gentamicin, reference compound]
zone of inhibition at 10 µg/mL [1]: 20 mm | zone of inhibition at 10 µg/mL [2]: 28 mm | zone of inhibition at 10 µg/mL [3]: 20 mm | zone of inhibition at 10 µg/mL [4]: 30 mm

SMILES: OC(Cn1cncn1)(Cn1cncn1)c1ccc(F)cc1F [fluconazole]
zone of inhibition at 25 µg/mL [5]: 18 mm | zone of inhibition at 25 µg/mL [6]: 18 mm | zone of inhibition at 25 µg/mL [7]: 20 mm

SMILES: CN[C@H](CC(C)C)C(=O)N[C@H]1C(=O)N[C@@H](CC(N)=O)C(=O)N[C@H]2C(=O)N[C@H]3C(=O)N[C@H](C(=O)N[C@H](C(=O)O)c4cc(O)cc(O)c4-c4cc3ccc4O)[C@H](O)c3ccc(c(Cl)c3)Oc3cc2cc(c3O[C@@H]2O[C@H](CO)[C@@H](O)[C@H](O)[C@H]2O[C@H]2C[C@](C)(N)[C@H](O)[C@H](C)O2)Oc2ccc(cc2Cl)[C@H]1O [Vancomycin, reference compound]
zone of inhibition at 50 µg/mL [8]: 28 mm | zone of inhibition at 50 µg/mL [9]: 20 mm | zone of inhibition at 50 µg/mL [10]: 26 mm | MIC (MRSA): 0.7 µg/mL (≈ 0.483 µM) | MIC (S. aureus): 0.7 µg/mL (≈ 0.483 µM)
